Assay results taken from patent publication US11850220B2 (Augusta University Research Institute, Inc., priority 2020, dated 2023).

Experiments:
hot plate = hot plate technique (central analgesic); assay type: in vivo; conditions: for Potency: Relative to indomethacin at 120 min.
COX-1 = COX-1 (Homo sapiens, UniProt P23219); test: COX-1/2 bio-assay: COX-1; assay type: biochemical; conditions: read-out: IC50 ± SD, COX-1
Text: (§1) Cyclooxygenases (COX) are the key enzymes capable of the conversion of arachidonic acid to prostaglandins.

animal gastric mucosa = test: ulcerogenic liability; assay type: in vivo; conditions: in vivo
[1] = tested on: acetic acid-induced abdominal writhing; test: acetic acid-induced abdominal writhing technique (peripheral analgesic); assay type: in vivo; conditions: for Potency: Relative to indomethacin; for % Inhibition/protection / Writing reflex ± SEM: in vivo; on % Inhibition/protection: test concentration or dose not given here; on Writing reflex ± SEM: test concentration or dose not given here
[2] = tested on: carrageenan-induced paw edema; test: carrageenan-induced paw edema technique (anti-inflammatory); assay type: in vivo; conditions: for Observed (1/property): 1/(% inhibition of edema thickness at 3 h effect); on Observed (1/property): test concentration or dose not given here; on Potency (% Inhibition relative to indomethacin at 3 h effect): test concentration or dose not given here
Text: Anti-inflammatory properties of the ibuprofen-amino acid conjugate (5a-j) and ibuprofen-amino acid-4-aminophenol conjugates 7a-j were studied by the standard carrageenan-induced paw edema technique (Naumov, R. N. et al., Bioorg. Med. Chem. Lett. 2015, 25, 2314-2320; Tiwari, A. D. et al., Org. Biomol. Chem. 2014, 12, 7238-7249).

COX-2 = target: T1, COX-2 (Homo sapiens, UniProt P35354); test: COX-1/2 bio-assay: COX-2; assay type: biochemical; conditions: for IC50: read-out: IC50 ± SD, COX-2; for SI(COX-2/COX-1): selectivity index COX-2/COX-1
T1 sequence (P35354 18-604): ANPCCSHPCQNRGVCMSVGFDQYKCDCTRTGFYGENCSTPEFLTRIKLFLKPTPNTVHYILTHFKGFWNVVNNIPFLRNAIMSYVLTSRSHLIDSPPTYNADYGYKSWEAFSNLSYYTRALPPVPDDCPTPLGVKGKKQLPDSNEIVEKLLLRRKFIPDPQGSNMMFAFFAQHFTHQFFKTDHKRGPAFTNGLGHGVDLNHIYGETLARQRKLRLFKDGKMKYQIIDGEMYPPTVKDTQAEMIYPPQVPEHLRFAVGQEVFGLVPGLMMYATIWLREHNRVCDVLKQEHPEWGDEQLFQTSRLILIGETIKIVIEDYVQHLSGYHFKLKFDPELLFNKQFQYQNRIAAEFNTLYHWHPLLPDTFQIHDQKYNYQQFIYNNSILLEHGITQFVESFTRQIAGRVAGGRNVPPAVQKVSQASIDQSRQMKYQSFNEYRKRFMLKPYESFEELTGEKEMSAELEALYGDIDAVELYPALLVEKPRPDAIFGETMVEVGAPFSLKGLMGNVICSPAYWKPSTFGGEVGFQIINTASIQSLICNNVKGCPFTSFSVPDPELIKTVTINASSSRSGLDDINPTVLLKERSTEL
Text: as §1

[3] = % inhibition of edema thickness at 3 h effect, Table 7
[4] = anti-inflammatory property (% inhibition of edema at 3 h), Table 8

Chain of COX-1 (P23219 24-599): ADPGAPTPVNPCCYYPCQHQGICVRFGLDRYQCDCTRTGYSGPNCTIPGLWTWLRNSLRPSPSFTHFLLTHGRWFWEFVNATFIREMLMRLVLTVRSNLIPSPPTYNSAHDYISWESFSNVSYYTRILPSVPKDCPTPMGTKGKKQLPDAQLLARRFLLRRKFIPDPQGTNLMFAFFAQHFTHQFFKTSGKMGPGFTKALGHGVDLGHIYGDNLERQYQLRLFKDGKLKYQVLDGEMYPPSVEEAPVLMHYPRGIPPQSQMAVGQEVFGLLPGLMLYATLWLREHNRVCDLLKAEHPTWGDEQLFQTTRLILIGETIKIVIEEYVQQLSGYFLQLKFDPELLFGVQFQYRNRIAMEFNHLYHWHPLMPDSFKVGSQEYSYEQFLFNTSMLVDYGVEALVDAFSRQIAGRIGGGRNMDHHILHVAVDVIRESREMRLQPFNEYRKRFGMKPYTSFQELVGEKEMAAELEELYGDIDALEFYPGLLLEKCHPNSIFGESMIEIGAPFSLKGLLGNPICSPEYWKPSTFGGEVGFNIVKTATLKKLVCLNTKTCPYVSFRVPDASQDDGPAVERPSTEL

| Structure (SMILES) | % protection (hot plate; After 30 min.) | Latency period ± SEM (hot plate; After 30 min.) [s] | % protection (hot plate; After 60 min.) | Latency period ± SEM (hot plate; After 60 min.) [s] | % protection (hot plate; After 90 min.) | Latency period ± SEM (hot plate; After 90 min.) [s] | % protection (hot plate; After 120 min.) | Latency period ± SEM (hot plate; After 120 min.) [s] | Potency (hot plate) | % Incidence of ulcer divided by 10 (animal gastric mucosa) | Average of ulcer number (animal gastric mucosa) | Average severity of ulcer (animal gastric mucosa) | Number of animals with ulcer (animal gastric mucosa) | Ulcer index (animal gastric mucosa) | Potency [1] | % Inhibition/protection [1] [%] | Writing reflex ± SEM [1] | Observed (1/property) ([2]; Table 7) | % inhibition of edema ([2]; 1 h) [%] | Mean edema thickness ([2]; 1 h) [mm] | further results |
| --- | --- | --- | --- | --- | --- | --- | --- | --- | --- | --- | --- | --- | --- | --- | --- | --- | --- | --- | --- | --- | --- |
| CC(C)Cc1ccc(C(C)C(=O)N[C@@H](Cc2ccccc2)C(=O)Nc2ccc(O)cc2)cc1 (stereo partly drawn) [Compound 7e, (2S)-N-(4-Hydroxyphenyl)-2-(2-(4-isobutylphenyl)propanamido)-3-phenylpropanamide] | (78.1) % | 4.31 ± 0.04 | (104.9) % | 4.57 ± 0.03 | (136.4) % | 5.20 ± 0.07 | (144.3) % | 5.35 ± 0.03 | 255 | 0 | 0 | 0 | 0 | 0 | 134 | 73.6 | 25.7 ± 1.0 | 0.01333 | 38 | 0.76 ± 0.05 | melting point: 168.7 °C; IC50 (COX-1): 13.2 ± 0.65 µM; % inhibition of edema ([2]; 2 h): 69%; Mean edema thickness ([2]; 2 h): 0.47 ± 0.03 mm; % inhibition of edema ([2]; 3 h): 75%; Mean edema thickness ([2]; 3 h): 0.32 ± 0.01 mm; % inhibition of edema ([2]; 4 h): 77%; Mean edema thickness ([2]; 4 h): 0.29 ± 0.03 mm; % inhibition of edema ([2]; 24 h): 11%; Mean edema thickness ([2]; 24 h): 0.17 ± 0.03 mm; Observed property [2, 3]: 75%; Observed property [2, 4]: 75%; Potency (% Inhibition relative to indomethacin at 3 h effect) [2]: 94%; IC50 (COX-2): 69.8 ± 4.93 µM; SI(COX-2/COX-1) (COX-2): 5.3 |
| CC(C)Cc1ccc(C(C)C(=O)N[C@@H](CCC(N)=O)C(=O)Nc2ccc(O)cc2)cc1 (stereo partly drawn) [Compound 7j, (2S)—N1-(4-Hydroxyphenyl)-2-(2-(4-isobutylphenyl)propanamido)pentanediamide] | (60.7) % | 3.89 ± 0.03 | (64.6) % | 3.67 ± 0.02 | (74.5) % | 3.84 ± 0.15 | (124.7) % | 4.92 ± 0.07 | 220 | 0 | 0 | 0 | 0 | 0 | 34 | 18.8 | 79.0 ± 1.8 | 0.01282 | 55 | 0.55 ± 0.04 | IC50 (COX-1): 8.29 ± 0.41 µM; % inhibition of edema ([2]; 2 h): 71%; Mean edema thickness ([2]; 2 h): 0.44 ± 0.02 mm; % inhibition of edema ([2]; 3 h): 78%; Mean edema thickness ([2]; 3 h): 0.28 ± 0.01 mm; % inhibition of edema ([2]; 4 h): 47%; Mean edema thickness ([2]; 4 h): 0.66 ± 0.03 mm; % inhibition of edema ([2]; 24 h): 32%; Mean edema thickness ([2]; 24 h): 0.13 ± 0.03 mm; Observed property [2, 3]: 78%; Observed property [2, 4]: 78%; Potency (% Inhibition relative to indomethacin at 3 h effect) [2]: 98%; IC50 (COX-2): 116 ± 8.23 µM; SI(COX-2/COX-1) (COX-2): 14.0 |
| CC(C)Cc1ccc(C(C)C(=O)NCC(=O)Nc2ccc(O)cc2)cc1 (stereo not drawn) [Compound 7a, N-(2-((4-Hydroxyphenyl)amino)-2-oxoethyl)-2-(4-isobutylphenyl)propanamide] | (97.1) % | 4.77 ± 0.07 | (94.6) % | 4.34 ± 0.04 | (86.4) % | 4.10 ± 0.02 | (81.7) % | 3.98 ± 0.11 | 144 | 0 | 0 | 0 | 0 | 0 | 139 | 76.4 | 23.0 ± 0.9 | 0.01316 | 41 | 0.73 ± 0.04 | melting point: 175.9 °C; IC50 (COX-1): 2.7 ± 0.13 µM; % inhibition of edema ([2]; 2 h): 65%; Mean edema thickness ([2]; 2 h): 0.53 ± 0.03 mm; % inhibition of edema ([2]; 3 h): 76%; Mean edema thickness ([2]; 3 h): 0.31 ± 0.02 mm; % inhibition of edema ([2]; 4 h): 83%; Mean edema thickness ([2]; 4 h): 0.21 ± 0.02 mm; % inhibition of edema ([2]; 24 h): 42%; Mean edema thickness ([2]; 24 h): 0.11 ± 0.03 mm; Observed property [2, 3]: 76%; Observed property [2, 4]: 76%; Potency (% Inhibition relative to indomethacin at 3 h effect) [2]: 95%; IC50 (COX-2): 78.3 ± 5.54 µM; SI(COX-2/COX-1) (COX-2): 29.0 |
| CC(C)Cc1ccc(C(C)C(=O)N[C@@H](CCC(N)=O)C(=O)O)cc1 (stereo partly drawn) [Compound 5j, (2-(4-Isobutylphenyl)propanoyl)-L-glutamine] | (22.3) % | 2.96 ± 0.02 | (25.1) % | 2.79 ± 0.03 | (45.5) % | 3.20 ± 0.04 | (46.1) % | 3.20 ± 0.03 | 81 | 0 | 0 | 0 | 0 | 0 | 3 | 1.6 | 95.7 ± 2.4 | 0.01389 | 25 | 0.92 ± 0.05 | melting point: 67.4 °C; % inhibition of edema ([2]; 2 h): 45%; Mean edema thickness ([2]; 2 h): 0.83 ± 0.04 mm; % inhibition of edema ([2]; 3 h): 72%; Mean edema thickness ([2]; 3 h): 0.36 ± 0.02 mm; % inhibition of edema ([2]; 4 h): 8%; Mean edema thickness ([2]; 4 h): 1.15 ± 0.06 mm; % inhibition of edema ([2]; 24 h): 47%; Mean edema thickness ([2]; 24 h): 0.10 ± 0.03 mm; Observed property [2, 3]: 72%; Observed property [2, 4]: 72%; Potency (% Inhibition relative to indomethacin at 3 h effect) [2]: 90% |
| CC(C)Cc1ccc(C(C)C(=O)N[C@@H](CC(C)C)C(=O)Nc2ccc(O)cc2)cc1 (stereo partly drawn) [Compound 7g, (2S)-N-(4-Hydroxyphenyl)-2-(2-(4-isobutylphenyl)propanamido)-4-methylpentanamide] | (36.0) % | 3.29 ± 0.05 | (39.0) % | 3.10 ± 0.01 | (43.6) % | 3.16 ± 0.06 | (79.0) % | 3.92 ± 0.08 | 140 | 0 | 0 | 0 | 0 | 0 | 144 | 79.1 | 20.3 ± 0.9 | 0.01333 | 30 | 0.86 ± 0.03 | melting point: 230.5 °C; IC50 (COX-1): 2.65 ± 0.13 µM; % inhibition of edema ([2]; 2 h): 39%; Mean edema thickness ([2]; 2 h): 0.92 ± 0.04 mm; % inhibition of edema ([2]; 3 h): 75%; Mean edema thickness ([2]; 3 h): 0.33 ± 0.03 mm; % inhibition of edema ([2]; 4 h): 48%; Mean edema thickness ([2]; 4 h): 0.65 ± 0.03 mm; % inhibition of edema ([2]; 24 h): 37%; Mean edema thickness ([2]; 24 h): 0.12 ± 0.03 mm; Observed property [2, 3]: 75%; Observed property [2, 4]: 75%; Potency (% Inhibition relative to indomethacin at 3 h effect) [2]: 94%; IC50 (COX-2): 144 ± 11.2 µM; SI(COX-2/COX-1) (COX-2): 54.3 |
